From article PMC10971807 (Marine Drugs, 2024)
pIC50: −log10 of the molar value. “And” between values parts separate entries of the source, which are not always exact repeats. Equal entries are not always repeated. Where a SMILES comes first, the peptide text is derived from it. Bridges are numbered along the chain shown (N, C = ends). [ ]: non-standard residue; d: D form. Dab = NCC[C@H](N)C(=O)O; Dap = NC[C@H](N)C(=O)O

Legend:
hα9α10 nAChR = hα9α10 nAChR (Homo sapiens, UniProt Q9GZZ6+Q9UGM1); assay: cell-based; conditions: for pIC50: IC50, inhibition of ACh-evoked currents at hα9α10 nAChRs
Chain of hα9α10 nAChR (Q9UGM1 26-479 limits assumed): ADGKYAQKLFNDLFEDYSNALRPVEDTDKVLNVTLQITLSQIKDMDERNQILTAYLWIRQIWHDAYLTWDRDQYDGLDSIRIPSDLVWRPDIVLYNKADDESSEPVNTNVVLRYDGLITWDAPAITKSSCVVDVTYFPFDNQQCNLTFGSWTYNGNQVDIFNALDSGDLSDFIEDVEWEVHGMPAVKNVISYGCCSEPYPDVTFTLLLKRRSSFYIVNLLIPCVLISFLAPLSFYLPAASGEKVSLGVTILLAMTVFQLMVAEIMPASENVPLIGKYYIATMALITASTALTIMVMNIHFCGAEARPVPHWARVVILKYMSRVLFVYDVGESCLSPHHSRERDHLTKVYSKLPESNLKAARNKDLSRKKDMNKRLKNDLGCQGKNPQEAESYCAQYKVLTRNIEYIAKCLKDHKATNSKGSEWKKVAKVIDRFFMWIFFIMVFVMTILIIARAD
Chain of hα9α10 nAChR (Q9GZZ6 25-450 limits assumed): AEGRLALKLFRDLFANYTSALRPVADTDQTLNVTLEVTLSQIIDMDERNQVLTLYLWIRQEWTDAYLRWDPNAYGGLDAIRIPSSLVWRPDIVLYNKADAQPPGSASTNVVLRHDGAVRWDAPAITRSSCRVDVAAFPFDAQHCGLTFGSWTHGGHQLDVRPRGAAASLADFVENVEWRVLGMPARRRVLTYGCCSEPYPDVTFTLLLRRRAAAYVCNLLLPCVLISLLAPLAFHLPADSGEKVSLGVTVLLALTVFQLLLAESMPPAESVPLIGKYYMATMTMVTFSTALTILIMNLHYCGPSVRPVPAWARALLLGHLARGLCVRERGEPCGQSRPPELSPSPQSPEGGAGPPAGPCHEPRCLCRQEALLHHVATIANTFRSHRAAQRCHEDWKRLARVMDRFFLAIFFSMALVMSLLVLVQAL

hα3β2 nAChR = hα3β2 nAChR (Homo sapiens, UniProt P17787+P32297); assay: cell-based
Chain of hα3β2 nAChR (P32297 32-505 limits assumed): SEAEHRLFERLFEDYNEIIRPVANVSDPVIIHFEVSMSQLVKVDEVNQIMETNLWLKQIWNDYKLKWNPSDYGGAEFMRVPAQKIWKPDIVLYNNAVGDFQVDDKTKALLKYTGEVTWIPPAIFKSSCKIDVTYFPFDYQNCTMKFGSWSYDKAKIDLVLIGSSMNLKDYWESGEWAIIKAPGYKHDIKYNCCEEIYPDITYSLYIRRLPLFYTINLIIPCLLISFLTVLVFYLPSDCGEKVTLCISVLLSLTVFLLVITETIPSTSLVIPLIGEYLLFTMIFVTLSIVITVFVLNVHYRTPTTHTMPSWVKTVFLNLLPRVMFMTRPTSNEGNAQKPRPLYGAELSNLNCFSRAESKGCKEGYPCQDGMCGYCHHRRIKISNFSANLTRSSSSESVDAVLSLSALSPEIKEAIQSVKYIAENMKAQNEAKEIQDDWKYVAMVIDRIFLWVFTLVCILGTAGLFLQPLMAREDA
Chain of hα3β2 nAChR (P17787 26-502 limits assumed): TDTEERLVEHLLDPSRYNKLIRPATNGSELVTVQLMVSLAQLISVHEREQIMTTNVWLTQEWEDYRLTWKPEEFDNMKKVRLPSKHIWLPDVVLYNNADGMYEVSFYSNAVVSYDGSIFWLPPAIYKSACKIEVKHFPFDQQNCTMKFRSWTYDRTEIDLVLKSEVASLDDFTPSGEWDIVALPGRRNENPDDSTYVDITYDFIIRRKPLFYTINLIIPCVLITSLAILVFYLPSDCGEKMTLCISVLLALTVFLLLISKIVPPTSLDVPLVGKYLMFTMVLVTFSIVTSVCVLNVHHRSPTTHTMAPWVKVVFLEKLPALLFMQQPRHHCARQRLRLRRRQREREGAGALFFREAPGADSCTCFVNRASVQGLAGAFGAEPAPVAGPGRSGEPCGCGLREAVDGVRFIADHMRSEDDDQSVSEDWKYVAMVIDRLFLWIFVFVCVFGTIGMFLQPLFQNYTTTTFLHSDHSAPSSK

hα7 nAChR = hα7 nAChR (Homo sapiens, UniProt P36544); assay: cell-based
Chain of hα7 nAChR (P36544 23-502 limits assumed): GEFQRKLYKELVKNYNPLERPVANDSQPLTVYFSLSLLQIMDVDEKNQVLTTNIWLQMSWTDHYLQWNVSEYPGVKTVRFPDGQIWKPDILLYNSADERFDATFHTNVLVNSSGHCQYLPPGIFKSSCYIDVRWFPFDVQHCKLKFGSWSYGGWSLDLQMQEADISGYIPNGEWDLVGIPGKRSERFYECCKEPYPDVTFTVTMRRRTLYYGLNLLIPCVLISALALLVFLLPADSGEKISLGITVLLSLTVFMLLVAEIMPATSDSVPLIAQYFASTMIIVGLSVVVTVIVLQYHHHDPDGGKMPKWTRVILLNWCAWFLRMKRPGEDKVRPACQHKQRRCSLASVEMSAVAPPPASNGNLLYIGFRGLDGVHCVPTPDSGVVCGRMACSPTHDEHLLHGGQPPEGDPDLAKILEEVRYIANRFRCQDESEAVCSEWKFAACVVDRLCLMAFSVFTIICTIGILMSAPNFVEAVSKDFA

hα4β4 nAChR = hα4β4 nAChR (Homo sapiens, UniProt P30926+P43681); format: cell-based
Chain of hα4β4 nAChR (P43681 29-627 limits assumed): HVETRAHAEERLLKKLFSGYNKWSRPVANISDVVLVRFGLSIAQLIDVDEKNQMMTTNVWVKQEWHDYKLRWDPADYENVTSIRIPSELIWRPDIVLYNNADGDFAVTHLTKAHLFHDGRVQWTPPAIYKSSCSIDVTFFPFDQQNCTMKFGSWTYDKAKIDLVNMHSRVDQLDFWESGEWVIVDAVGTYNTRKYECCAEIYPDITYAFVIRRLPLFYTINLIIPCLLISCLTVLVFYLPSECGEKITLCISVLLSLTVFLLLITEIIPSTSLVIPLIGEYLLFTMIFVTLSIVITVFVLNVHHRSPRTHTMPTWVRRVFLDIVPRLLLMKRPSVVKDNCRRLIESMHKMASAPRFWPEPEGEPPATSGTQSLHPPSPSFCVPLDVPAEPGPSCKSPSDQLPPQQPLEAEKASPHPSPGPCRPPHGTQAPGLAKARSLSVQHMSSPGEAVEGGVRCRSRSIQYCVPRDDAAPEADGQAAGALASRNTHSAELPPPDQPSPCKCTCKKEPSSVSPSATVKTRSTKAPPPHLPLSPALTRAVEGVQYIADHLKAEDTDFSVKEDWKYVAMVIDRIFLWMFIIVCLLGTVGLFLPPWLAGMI
Chain of hα4β4 nAChR (P30926 22-498 limits assumed): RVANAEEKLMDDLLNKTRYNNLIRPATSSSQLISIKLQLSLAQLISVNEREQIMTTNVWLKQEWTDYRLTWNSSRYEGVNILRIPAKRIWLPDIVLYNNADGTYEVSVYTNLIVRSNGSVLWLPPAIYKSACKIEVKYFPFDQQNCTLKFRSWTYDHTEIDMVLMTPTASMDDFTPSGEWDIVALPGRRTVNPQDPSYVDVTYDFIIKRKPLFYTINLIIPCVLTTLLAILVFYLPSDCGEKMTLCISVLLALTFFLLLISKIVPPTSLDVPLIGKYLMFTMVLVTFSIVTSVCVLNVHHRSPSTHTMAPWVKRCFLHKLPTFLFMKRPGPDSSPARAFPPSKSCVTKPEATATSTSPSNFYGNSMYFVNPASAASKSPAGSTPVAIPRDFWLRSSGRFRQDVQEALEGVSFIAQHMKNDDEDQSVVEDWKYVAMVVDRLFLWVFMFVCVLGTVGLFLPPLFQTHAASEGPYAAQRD

hα4β2 nAChR = hα4β2 nAChR (Homo sapiens, UniProt P17787+P43681); format: cell-based
Chain of hα4β2 nAChR (P43681 29-627 limits assumed): as the sequence (P43681 29-627 limits assumed) above
Chain of hα4β2 nAChR (P17787 26-502 limits assumed): as the sequence (P17787 26-502 limits assumed) above

hα3β4 nAChR = hα3β4 nAChR (Homo sapiens, UniProt P30926+P32297); format: cell-based
Chain of hα3β4 nAChR (P32297 32-505 limits assumed): as the sequence (P32297 32-505 limits assumed) above
Chain of hα3β4 nAChR (P30926 22-498 limits assumed): as the sequence (P30926 22-498 limits assumed) above

Compound | Enhancement of activity (IC50) at hα9α10 relative to PeIA (hα9α10 nAChR) | pIC50 (hα9α10 nAChR) | pIC50 (hα3β2 nAChR) | also measured
CC(C)C[C@@H]1NC(=O)[C@H](CCC(=O)O)NC(=O)[C@@H]2CCCN2C(=O)[C@H](Cc2c[nH]cn2)NC(=O)[C@H](CC(N)=O)NC(=O)[C@H](C(C)C)NC(=O)[C@H](CO)NC(=O)[C@@H]2CSSC[C@H](NC(=O)CN)C(=O)N[C@@H](CSSC[C@@H](C(N)=O)NC1=O)C(=O)N[C@@H](CCN)C(=O)N[C@@H](Cc1c[nH]cn1)C(=O)N1CCC[C@H]1C(=O)N[C@@H](C)C(=O)N2 [PeIA[S4Dab]] (H-GCC[Dab]HPACSVNHPELC-NH2; disulfide 2-8, 3-16) | ~ 4 fold | 8.27 and 8.28 | – | –
CC(C)C[C@@H]1NC(=O)[C@H](CCC(=O)O)NC(=O)[C@@H]2CCCN2C(=O)[C@H](Cc2c[nH]cn2)NC(=O)[C@H](CC(N)=O)NC(=O)[C@H](C(C)C)NC(=O)[C@H](CN)NC(=O)[C@@H]2CSSC[C@H](NC(=O)CN)C(=O)N[C@@H](CSSC[C@@H](C(N)=O)NC1=O)C(=O)N[C@@H](CN)C(=O)N[C@@H](Cc1c[nH]cn1)C(=O)N1CCC[C@H]1C(=O)N[C@@H](C)C(=O)N2 [PeIA[S4Dap, S9Dap]] (H-GCC[Dap]HPAC[Dap]VNHPELC-NH2; disulfide 2-8, 3-16) | ~24 fold | 9.03 | 7.48 | pIC50 (hα7 nAChR): 6.79; Potency at hα9α10 relative to dimeric PeIA (hα9α10 nAChR): approximately two-fold
CC(C)C[C@@H]1NC(=O)[C@H](CCC(=O)O)NC(=O)[C@@H]2CCCN2C(=O)[C@H](Cc2c[nH]cn2)NC(=O)[C@H](CC(N)=O)NC(=O)[C@H](C(C)C)NC(=O)[C@H](CO)NC(=O)[C@@H]2CSSC[C@H](NC(=O)CN)C(=O)N[C@@H](CSSC[C@@H](C(N)=O)NC1=O)C(=O)N[C@@H](CN)C(=O)N[C@@H](Cc1c[nH]cn1)C(=O)N1CCC[C@H]1C(=O)N[C@@H](C)C(=O)N2 [PeIA[S4Dap]] (H-GCC[Dap]HPACSVNHPELC-NH2; disulfide 2-8, 3-16) | ~13 fold | 8.76 | – | –
CC(C)C[C@@H]1NC(=O)[C@H](CCC(=O)O)NC(=O)[C@@H]2CCCN2C(=O)[C@H](Cc2c[nH]cn2)NC(=O)[C@H](CC(N)=O)NC(=O)[C@H](C(C)C)NC(=O)[C@H](CN)NC(=O)[C@@H]2CSSC[C@H](NC(=O)CN)C(=O)N[C@@H](CSSC[C@@H](C(N)=O)NC1=O)C(=O)N[C@@H](CO)C(=O)N[C@@H](Cc1c[nH]cn1)C(=O)N1CCC[C@H]1C(=O)N[C@@H](C)C(=O)N2 [PeIA[S9Dap]] (H-GCCSHPAC[Dap]VNHPELC-NH2; disulfide 2-8, 3-16) | ~5 fold | 8.33 | – | –
CC(C)C[C@@H]1NC(=O)[C@H](CCC(=O)O)NC(=O)[C@@H]2CCCN2C(=O)[C@H](Cc2c[nH]cn2)NC(=O)[C@H](CC(N)=O)NC(=O)[C@H](C(C)C)NC(=O)[C@H](CO)NC(=O)[C@@H]2CSSC[C@H](NC(=O)CN)C(=O)N[C@@H](CSSC[C@@H](C(N)=O)NC1=O)C(=O)N[C@@H](CO)C(=O)N[C@@H](Cc1c[nH]cn1)C(=O)N1CCC[C@H]1C(=O)N[C@@H](C)C(=O)N2 [PeIA] (H-GCCSHPACSVNHPELC-NH2; disulfide 2-8, 3-16) | – | – | – | Inhibition of ACh-evoked currents at hα4β4 (hα4β4 nAChR): < 1%; Inhibition of ACh-evoked currents at hα4β2 (hα4β2 nAChR): < 1%; Inhibition of ACh-evoked currents at hα3β4 (hα3β4 nAChR): < 1%
CC(C)C[C@@H]1NC(=O)[C@H](CCC(=O)O)NC(=O)[C@@H]2CCCN2C(=O)[C@H](Cc2cnc[nH]2)NC(=O)[C@H](CC(N)=O)NC(=O)[C@H](C(C)C)NC(=O)[C@H](CO)NC(=O)[C@@H]2CSSC[C@H](NC(=O)CN)C(=O)N[C@@H](CSSC[C@@H](C(N)=O)NC1=O)C(=O)N[C@@H](CO)C(=O)N[C@@H](Cc1cnc[nH]1)C(=O)N1CCC[C@H]1C(=O)N[C@@H](C)C(=O)N2 [PeIA] (H-GCCSHPACSVNHPELC-NH2; disulfide 2-8, 3-16) | – | – | 7.22 | –
